Reference: paper PMC11345841, “Exploring 2-Sulfonylpyrimidine Warheads as Acrylamide Surrogates for Targeted Covalent Inhibition: A BTK Story” (Journal of Medicinal Chemistry, 2024)
Like-named read-outs stand apart in the source and are kept apart here.

How the values were obtained:
Experiment in all cases: KINOMEscan ScanTK
Type in all cases: binding
PYK2 = molecular target: T1, PYK2 (Homo sapiens, UniProt Q14289)
T1 construct: purchased Eurofins DiscoverX KINOMEscan (scanTK)

ALK(L1196M) = molecular target: T2, ALK(L1196M) (Homo sapiens, UniProt Q9UM73, L1196M)
T2 construct: purchased Eurofins DiscoverX KINOMEscan (scanTK)

FGFR3 = molecular target: T3, FGFR3 (Homo sapiens, UniProt P22607)
T3 construct: purchased Eurofins DiscoverX KINOMEscan (scanTK)

LTK = molecular target: T4, LTK (Homo sapiens, UniProt P29376)
T4 construct: purchased Eurofins DiscoverX KINOMEscan (scanTK)

[1] = molecular target: T5, TYK2(JH1domain-catalytic) (Homo sapiens, UniProt P29597)
T5 construct: TYK2(JH1domain-catalytic); purchased Eurofins DiscoverX KINOMEscan (scanTK)
T5 sequence (P29597 888-1187 limits assumed): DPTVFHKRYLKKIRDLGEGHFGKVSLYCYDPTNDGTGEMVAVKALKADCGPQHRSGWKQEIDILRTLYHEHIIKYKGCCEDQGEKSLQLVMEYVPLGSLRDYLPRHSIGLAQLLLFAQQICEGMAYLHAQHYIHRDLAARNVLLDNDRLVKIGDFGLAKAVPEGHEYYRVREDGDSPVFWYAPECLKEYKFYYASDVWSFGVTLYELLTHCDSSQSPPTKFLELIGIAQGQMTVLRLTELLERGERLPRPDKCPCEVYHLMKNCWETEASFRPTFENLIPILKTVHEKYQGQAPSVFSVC

CSF1R = molecular target: T6, CSF1R (Homo sapiens, UniProt P07333)
T6 construct: purchased Eurofins DiscoverX KINOMEscan (scanTK)

FES = molecular target: T7, FES (Homo sapiens, UniProt P07332)
T7 construct: purchased Eurofins DiscoverX KINOMEscan (scanTK)

FLT3(ITD,F691L) = tested on: FLT3(ITD,F691L)
ALK = molecular target: T8, ALK (Homo sapiens, UniProt Q9UM73)
T8 construct: purchased Eurofins DiscoverX KINOMEscan (scanTK)

EGFR(L747-T751del,Sins) = tested on: EGFR(L747-T751del,Sins)
FLT3(D835V) = molecular target: T9, FLT3(D835V) (Homo sapiens, UniProt P36888, D835V)
T9 construct: purchased Eurofins DiscoverX KINOMEscan (scanTK)
T9 sequence (P36888 27-993 D835V): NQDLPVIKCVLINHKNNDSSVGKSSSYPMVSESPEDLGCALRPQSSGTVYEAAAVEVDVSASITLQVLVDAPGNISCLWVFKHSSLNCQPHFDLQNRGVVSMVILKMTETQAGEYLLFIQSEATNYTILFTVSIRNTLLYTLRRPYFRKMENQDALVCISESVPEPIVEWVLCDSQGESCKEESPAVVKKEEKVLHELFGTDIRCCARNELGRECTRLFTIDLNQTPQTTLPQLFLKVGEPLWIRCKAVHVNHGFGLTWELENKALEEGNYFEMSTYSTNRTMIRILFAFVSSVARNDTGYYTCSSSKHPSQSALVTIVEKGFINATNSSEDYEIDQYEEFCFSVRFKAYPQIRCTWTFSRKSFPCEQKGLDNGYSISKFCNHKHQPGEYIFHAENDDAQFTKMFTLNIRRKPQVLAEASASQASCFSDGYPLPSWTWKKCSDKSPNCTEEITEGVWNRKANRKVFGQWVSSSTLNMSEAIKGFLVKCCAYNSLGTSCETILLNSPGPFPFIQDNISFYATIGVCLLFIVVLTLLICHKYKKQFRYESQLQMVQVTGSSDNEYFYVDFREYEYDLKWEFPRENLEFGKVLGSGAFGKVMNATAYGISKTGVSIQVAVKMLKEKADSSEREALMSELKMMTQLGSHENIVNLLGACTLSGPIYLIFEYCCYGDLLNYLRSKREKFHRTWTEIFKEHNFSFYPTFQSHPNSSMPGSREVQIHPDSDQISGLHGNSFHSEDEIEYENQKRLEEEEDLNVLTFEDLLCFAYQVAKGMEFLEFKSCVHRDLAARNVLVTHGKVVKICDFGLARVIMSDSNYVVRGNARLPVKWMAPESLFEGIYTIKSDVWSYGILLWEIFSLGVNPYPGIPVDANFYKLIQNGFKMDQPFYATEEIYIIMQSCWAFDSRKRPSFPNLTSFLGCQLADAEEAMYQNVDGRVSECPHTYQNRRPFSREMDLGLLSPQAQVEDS

ABL2 = molecular target: T10, ABL2 (Homo sapiens, UniProt P42684)
T10 construct: purchased Eurofins DiscoverX KINOMEscan (scanTK)

MET(Y1235D) = molecular target: T11, MET(Y1235D) (Homo sapiens, UniProt P08581, Y1235D)
T11 construct: purchased Eurofins DiscoverX KINOMEscan (scanTK)

FGFR3(G697C) = molecular target: T12, FGFR3(G697C) (Homo sapiens, UniProt P22607, G697C)
T12 construct: purchased Eurofins DiscoverX KINOMEscan (scanTK)

KIT(V559D,T670I) = molecular target: T13, KIT(V559D,T670I) (Homo sapiens, UniProt P10721, T670I/V559D)
T13 construct: purchased Eurofins DiscoverX KINOMEscan (scanTK)
T13 sequence (P10721 26-976 V559D/T670I): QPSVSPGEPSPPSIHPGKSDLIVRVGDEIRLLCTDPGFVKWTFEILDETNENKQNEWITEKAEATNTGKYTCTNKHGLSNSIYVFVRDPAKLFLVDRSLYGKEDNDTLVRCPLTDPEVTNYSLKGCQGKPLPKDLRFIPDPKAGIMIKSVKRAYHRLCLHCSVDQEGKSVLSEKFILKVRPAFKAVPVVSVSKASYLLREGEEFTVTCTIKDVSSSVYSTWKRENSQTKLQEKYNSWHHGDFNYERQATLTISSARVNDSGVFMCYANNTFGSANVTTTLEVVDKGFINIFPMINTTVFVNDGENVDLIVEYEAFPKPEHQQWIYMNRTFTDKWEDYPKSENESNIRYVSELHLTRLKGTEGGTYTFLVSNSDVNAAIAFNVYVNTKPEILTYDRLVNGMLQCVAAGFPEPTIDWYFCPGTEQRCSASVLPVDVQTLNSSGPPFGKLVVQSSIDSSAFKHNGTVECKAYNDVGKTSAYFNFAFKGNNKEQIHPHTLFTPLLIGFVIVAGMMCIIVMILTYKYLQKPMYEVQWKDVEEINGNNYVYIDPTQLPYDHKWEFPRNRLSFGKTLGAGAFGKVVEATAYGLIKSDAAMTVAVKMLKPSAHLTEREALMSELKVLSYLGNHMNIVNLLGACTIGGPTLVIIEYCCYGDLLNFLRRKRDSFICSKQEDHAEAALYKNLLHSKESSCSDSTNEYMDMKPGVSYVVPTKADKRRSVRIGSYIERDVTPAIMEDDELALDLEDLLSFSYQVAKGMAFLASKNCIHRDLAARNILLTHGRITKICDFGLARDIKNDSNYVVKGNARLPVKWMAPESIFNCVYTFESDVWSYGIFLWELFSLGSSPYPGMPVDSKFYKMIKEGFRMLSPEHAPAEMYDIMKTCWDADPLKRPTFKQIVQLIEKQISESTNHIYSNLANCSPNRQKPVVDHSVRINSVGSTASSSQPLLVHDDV

T8 sequence (Q9UM73 19-1620): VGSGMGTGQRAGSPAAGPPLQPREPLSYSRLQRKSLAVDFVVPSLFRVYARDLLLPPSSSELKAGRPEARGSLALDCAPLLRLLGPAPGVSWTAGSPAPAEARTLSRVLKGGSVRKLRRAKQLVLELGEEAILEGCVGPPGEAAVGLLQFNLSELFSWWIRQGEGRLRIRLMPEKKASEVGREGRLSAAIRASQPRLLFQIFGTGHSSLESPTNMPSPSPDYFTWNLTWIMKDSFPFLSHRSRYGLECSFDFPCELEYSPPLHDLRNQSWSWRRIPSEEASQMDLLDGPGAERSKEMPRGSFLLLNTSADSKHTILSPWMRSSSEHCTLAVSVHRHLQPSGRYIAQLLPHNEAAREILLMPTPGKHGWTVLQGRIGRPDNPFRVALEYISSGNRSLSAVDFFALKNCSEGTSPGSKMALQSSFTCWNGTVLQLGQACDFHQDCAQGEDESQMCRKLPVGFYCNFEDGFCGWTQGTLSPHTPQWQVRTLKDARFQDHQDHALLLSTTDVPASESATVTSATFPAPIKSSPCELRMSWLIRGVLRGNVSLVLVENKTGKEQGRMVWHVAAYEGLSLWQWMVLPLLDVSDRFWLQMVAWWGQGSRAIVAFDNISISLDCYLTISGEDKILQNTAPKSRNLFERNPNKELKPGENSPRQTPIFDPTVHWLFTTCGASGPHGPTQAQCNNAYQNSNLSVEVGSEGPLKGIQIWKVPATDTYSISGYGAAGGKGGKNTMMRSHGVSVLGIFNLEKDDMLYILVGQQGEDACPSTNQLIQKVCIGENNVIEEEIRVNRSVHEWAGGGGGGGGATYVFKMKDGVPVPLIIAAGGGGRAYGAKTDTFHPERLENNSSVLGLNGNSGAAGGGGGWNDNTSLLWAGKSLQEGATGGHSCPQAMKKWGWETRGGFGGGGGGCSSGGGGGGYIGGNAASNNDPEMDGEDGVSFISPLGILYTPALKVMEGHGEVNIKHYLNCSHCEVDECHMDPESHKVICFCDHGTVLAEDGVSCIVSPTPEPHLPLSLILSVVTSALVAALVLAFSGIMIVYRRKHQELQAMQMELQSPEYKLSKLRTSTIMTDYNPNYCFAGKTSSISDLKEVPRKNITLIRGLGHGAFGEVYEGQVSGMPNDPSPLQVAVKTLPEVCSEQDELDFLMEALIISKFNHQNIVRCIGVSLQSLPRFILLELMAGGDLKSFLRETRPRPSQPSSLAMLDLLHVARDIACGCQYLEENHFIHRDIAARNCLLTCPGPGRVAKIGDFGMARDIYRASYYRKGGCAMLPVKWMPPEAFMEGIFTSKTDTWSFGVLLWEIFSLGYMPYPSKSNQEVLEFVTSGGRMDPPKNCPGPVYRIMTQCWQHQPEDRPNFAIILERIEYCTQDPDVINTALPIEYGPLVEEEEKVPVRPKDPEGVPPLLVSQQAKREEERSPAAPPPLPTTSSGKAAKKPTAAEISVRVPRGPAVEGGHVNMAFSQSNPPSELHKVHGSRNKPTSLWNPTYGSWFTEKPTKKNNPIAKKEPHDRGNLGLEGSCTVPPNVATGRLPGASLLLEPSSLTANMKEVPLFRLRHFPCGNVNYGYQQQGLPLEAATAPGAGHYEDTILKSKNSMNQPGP
T12 sequence (P22607 23-806 G697C): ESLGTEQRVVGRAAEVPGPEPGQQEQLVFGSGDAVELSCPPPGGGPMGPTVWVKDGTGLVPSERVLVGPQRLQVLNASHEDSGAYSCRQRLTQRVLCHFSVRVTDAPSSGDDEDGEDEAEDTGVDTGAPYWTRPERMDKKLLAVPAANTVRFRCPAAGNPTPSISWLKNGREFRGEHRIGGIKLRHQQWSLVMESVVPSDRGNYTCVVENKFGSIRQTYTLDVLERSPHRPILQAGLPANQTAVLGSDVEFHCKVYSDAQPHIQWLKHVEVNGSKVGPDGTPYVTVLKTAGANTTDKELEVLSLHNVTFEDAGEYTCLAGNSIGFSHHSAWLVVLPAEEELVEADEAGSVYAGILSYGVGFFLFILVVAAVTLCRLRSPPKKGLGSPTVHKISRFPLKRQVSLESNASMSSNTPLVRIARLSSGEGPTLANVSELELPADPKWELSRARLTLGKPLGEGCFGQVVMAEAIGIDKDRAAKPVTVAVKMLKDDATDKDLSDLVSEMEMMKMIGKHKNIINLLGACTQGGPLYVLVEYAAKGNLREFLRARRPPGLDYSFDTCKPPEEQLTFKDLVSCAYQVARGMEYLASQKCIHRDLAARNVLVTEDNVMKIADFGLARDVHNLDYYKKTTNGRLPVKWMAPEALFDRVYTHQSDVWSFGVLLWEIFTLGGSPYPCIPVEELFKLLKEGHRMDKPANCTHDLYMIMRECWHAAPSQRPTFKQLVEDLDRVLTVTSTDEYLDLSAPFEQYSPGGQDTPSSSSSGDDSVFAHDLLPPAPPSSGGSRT
T7 sequence (P07332 whole entry): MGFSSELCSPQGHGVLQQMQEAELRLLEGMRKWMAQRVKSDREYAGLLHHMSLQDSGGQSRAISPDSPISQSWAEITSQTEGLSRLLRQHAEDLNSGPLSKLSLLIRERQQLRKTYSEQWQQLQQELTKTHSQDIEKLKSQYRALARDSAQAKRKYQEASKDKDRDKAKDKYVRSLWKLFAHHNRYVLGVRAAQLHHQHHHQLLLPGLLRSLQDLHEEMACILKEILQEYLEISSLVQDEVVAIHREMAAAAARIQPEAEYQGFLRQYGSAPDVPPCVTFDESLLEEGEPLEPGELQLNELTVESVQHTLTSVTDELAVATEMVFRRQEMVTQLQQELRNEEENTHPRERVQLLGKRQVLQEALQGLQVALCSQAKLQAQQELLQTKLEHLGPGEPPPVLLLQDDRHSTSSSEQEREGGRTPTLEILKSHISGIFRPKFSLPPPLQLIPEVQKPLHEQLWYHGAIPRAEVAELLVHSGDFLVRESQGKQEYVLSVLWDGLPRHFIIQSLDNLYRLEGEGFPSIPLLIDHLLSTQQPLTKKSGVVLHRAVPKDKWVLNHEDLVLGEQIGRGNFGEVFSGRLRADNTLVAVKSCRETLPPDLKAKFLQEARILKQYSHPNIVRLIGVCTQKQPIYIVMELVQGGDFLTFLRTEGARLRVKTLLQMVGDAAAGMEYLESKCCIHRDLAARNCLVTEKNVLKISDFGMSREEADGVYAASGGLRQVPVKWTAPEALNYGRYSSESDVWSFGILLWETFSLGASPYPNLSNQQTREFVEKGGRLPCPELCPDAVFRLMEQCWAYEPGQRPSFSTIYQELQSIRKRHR
T6 sequence (P07333 20-972): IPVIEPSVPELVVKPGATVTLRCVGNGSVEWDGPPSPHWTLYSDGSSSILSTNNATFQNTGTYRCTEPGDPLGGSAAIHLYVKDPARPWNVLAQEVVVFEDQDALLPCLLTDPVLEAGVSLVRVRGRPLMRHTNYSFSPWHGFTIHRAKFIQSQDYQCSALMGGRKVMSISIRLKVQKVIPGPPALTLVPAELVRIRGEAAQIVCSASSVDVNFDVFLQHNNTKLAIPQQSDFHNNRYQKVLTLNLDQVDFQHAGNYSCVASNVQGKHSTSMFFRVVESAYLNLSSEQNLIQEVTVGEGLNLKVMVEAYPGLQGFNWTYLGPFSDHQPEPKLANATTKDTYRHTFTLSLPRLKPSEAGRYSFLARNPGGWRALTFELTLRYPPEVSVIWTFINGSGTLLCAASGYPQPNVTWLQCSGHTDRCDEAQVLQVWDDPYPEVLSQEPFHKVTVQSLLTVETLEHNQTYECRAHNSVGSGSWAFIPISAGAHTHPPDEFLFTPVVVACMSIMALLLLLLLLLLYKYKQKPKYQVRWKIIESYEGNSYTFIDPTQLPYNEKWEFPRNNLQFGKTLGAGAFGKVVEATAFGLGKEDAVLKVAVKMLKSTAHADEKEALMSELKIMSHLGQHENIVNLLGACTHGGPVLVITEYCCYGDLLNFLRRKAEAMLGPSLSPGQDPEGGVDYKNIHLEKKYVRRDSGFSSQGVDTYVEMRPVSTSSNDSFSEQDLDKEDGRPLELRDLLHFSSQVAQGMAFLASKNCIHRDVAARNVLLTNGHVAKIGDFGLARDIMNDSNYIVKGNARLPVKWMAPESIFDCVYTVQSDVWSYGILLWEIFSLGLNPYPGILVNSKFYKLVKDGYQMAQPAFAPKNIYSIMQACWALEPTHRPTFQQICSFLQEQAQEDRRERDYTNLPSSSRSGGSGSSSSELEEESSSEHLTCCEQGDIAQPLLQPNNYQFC

## Cc1cnc(S(C)(=O)=O)nc1N1CCCC(n2nc(-c3ccc(Oc4ccccc4)cc3)c3c(N)ncnc32)C1 (centres unmarked) [Compound 8a, 1-(1-(5-Methyl-2-(methylsulfonyl)pyrimidin-4-yl)piperidin-3-yl)-3-(4-phenoxyphenyl)-1H-pyrazolo[3,4-d]pyrimidin-4-amine]
PYK2; @1000nM, read-out: %Control
  remaining binding at 1 µM: 92%
PYK2; read-out: %Control @1000nM
  remaining binding at 1 µM: 92%
ALK(L1196M); @1000nM
  difference in % of control vs compound Ib at 1 µM: -5%
ALK(L1196M); @1000nM, read-out: %Control
  remaining binding at 1 µM: 95%
ALK(L1196M); read-out: %Control @1000nM
  remaining binding at 1 µM: 95%
FGFR3; @1000nM
  difference in %Control versus compound Ib at 1 µM: 44%
FGFR3; @1000nM, read-out: %Control
  remaining binding at 1 µM: 92%
FGFR3; read-out: %Control @1000nM
  remaining binding at 1 µM: 92%
LTK; @1000nM, read-out: %Control
  remaining binding at 1 µM: 93%
LTK; read-out: %Control @1000nM
  remaining binding at 1 µM: 93%
[1]; @1000nM, read-out: %Control
  remaining binding at 1 µM: 89%
[1]; read-out: %Control @1000nM
  remaining binding at 1 µM: 89%
CSF1R; @1000nM
  difference in %Control versus compound Ib at 1 µM: 12%
CSF1R; @1000nM, read-out: %Control
  remaining binding at 1 µM: 92%
CSF1R; read-out: %Control @1000nM
  remaining binding at 1 µM: 92%
FES; @1000nM
  difference in %Control versus compound Ib at 1 µM: 0%
FES; @1000nM, read-out: %Control
  remaining binding at 1 µM: 100%
FES; read-out: %Control @1000nM
  remaining binding at 1 µM: 100%
FLT3(ITD,F691L)
  %Control @1000nM: 96%
FLT3(ITD,F691L); @1000nM
  % difference (compound - Ib %Control): -4%
  %Control: 96%
ALK; @1000nM
  difference in %Control versus compound Ib at 1 µM: -14%
ALK; @1000nM, read-out: %Control
  remaining binding at 1 µM: 80%
ALK; read-out: %Control @1000nM
  remaining binding at 1 µM: 80%
EGFR(L747-T751del,Sins)
  %Control @1000nM: 70%
EGFR(L747-T751del,Sins); @1000nM
  % difference (compound - Ib %Control): 67.4%
  %Control: 70%
FLT3(D835V); @1000nM
  difference in %Control versus compound Ib at 1 µM: 20.1%
FLT3(D835V); @1000nM, read-out: %Control
  remaining binding at 1 µM: 30%
FLT3(D835V); read-out: %Control @1000nM
  remaining binding at 1 µM: 30%
ABL2; @1000nM
  difference in %Control from reference compound Ib at 1 µM: 29%
ABL2; @1000nM, read-out: %Control
  remaining binding at 1 µM: 70%
ABL2; read-out: %Control @1000nM
  remaining binding at 1 µM: 70%
MET(Y1235D); @1000nM, read-out: %Control
  remaining binding at 1 µM: 100%
MET(Y1235D); read-out: %Control @1000nM
  remaining binding at 1 µM: 100%
FGFR3(G697C); @1000nM
  difference in %Control versus compound Ib at 1 µM: 57%
FGFR3(G697C); @1000nM, read-out: %Control
  remaining binding at 1 µM: 97%
FGFR3(G697C); read-out: %Control @1000nM
  remaining binding at 1 µM: 97%
KIT(V559D,T670I); @1000nM
  difference in %Control versus compound Ib at 1 µM: 0%
KIT(V559D,T670I); @1000nM, read-out: %Control
  remaining binding at 1 µM: 68%
KIT(V559D,T670I); read-out: %Control @1000nM
  remaining binding at 1 µM: 68%
